Results published in patent US12133855B2, “Lipid-like nanocomplexes and uses thereof” (Trustees of Tufts College, priority 2018, dated 2024).

Key:
[1] = system: B16F10 (mouse melanoma cells); test: GFP mRNA delivery (GFP+ cells); format: cell-based; settings: LNP/mRNA=10/1, [mRNA]=0.86 μg mL^−1, 24 h
Procedure: (§1) To examine the delivery spectrum of the newly developed LNPs, the GFP mRNA loaded OCholB LNPs were then challenged against other four types of cell lines. B16F10 (mouse melanoma cells), HEK 293 (human embryonic kidney cells), NIH 3T3 (mouse embryonic fibroblast cells) and Jurkat (human T lymphocyte cells) cells were tested (LNP/mRNA=10/1; [mRNA]=0.86 μg mL^−1; 24 h exposure) and the results are shown in FIG. 14D. As the positive control, Lpf2k turned out to be very efficient to deliver GFP mRNA into B16F10 (63.2% of GFP^+ cells), HEK 293 (80.1%) and NIH 3T3 (70.1%) cells, while slightly less efficient to Jurkat cell (28.7%), which is usually considered to be one of the most difficult-to-transfect cell lines. […] For example, 63.0%, 60.9%, 54.1% and 50.1% of GFP^+ cells were determined from mRNA/75-OCholB treated B16F10, HEK 293, NIH 3T3 and Jurkat cells; and the numbers for mRNA/76-OCholB treated cells were 70.7%, 75.8%, 24.1% and 7.7%, respectively. It was obvious that not only the types of lipidoids, but also the target cell lines could have huge impacts on the delivery efficacy. Overall, the positive control, Lpf2k, is a relatively high-activity broad-spectrum transfection reagent; most of the OCholB LNPs (6 out of 9) are also effective broad-spectrum transfection reagents under the tested conditions. […] It was expected that through further formulation optimization, such as adding excipients (helper lipids like small molecular phospholipids (e.g. DOPE and DSPC) and macromolecules lipids (e.g. PEG-DSPE and PEG-Ceramide)) into the LNPs and/or using more controllable self-assembly procedures, improved transfection efficiency of the fully substituted OCholB LNPs could be achieved.

[2] = system: NIH 3T3 (mouse embryonic fibroblast cells); test: GFP mRNA delivery (GFP+ cells); format: cell-based; settings: LNP/mRNA=10/1, [mRNA]=0.86 μg mL^−1, 24 h
Procedure: as §1

[3] = system: HEK 293 (human embryonic kidney cells); test: GFP mRNA delivery (GFP+ cells); format: cell-based; settings: LNP/mRNA=10/1, [mRNA]=0.86 μg mL^−1, 24 h
Procedure: as §1

HeLa-DsRed cells = test: Internalization mechanism study with endocytosis inhibitors; format: cell-based; settings: [lipidoid]=6.6 μg mL^−1, [(−30)GFP-Cre]=100 nM; 6 h
Description: In this context, the internalization mechanism of the (−30)GFP-Cre/LNPs complexes was studied at first, by introducing different endocytosis inhibitors, i.e., sucrose (clathrin-mediated endocytosis inhibitor), methyl-β-cyclodextrin (M-β-CD, cholesterol-depleting agent), dynasore (dynamin II inhibitor) and nystatin (caveolin-mediated endocytosis inhibitor), following our previously reported procedures. […] Comparing to other combinatorial library studies, it is clear that even loaded with same cargoes and tested against same cell line, different lipidoids with different chemical structures could be internalized through very distinct pathways. Next, the genome-editing efficiencies of (−30)GFP-Cre/LNPs were determined by flow cytometry after 24 h of incubation (with 8 h of (−30)GFP-Cre/LNPs complex exposure). Three different concentrations of protein/lipidoid complexes (25 nM/1.7 μg mL^−1, 50 nM/3.4 μg mL^−1, and 100 nM/6.6 μg mL^−1) were tested for each lipidoid nanoparticle. […] For example, the DsRed^+ cells were recorded as 10.5%/24.9%/88.9%, 13.5%/55.4%/88.8%, and 27.7%/47.8%/94.7% for (−30)GFP-Cre loaded 75-OCholB, 76-OCholB and 77-OCholB, respectively, at the protein concentration of 25, 50 and 100 nM. […] Then, the cytotoxicity profiles of (−30)GFP-Cre/LNPs, (−30)GFP-Cre/Lpf2k and naked (−30)GFP-Cre at different concentrations against HeLa-DsRed cells (8 h of exposure; (−30)GFP-Cre/LNPs=25 nM/1.7 μg mL^−1, 50 nM/3.4 μg mL^−1, and 100 nM/6.6 μg mL^−1) are measured using MTT assay after 24 h of incubation. […] For (−30)GFP-Cre/75-OCholB treated cells, the viabilities were determined to be 95.5%, 91.8% and 83.1%, at the protein concentration of 25, 50 and 100 nM, respectively; the numbers for (−30)GFP-Cre/76-OCholB and (−30)GFP-Cre/77-OCholB are 97.8%/98.2%/97.2 and 100.9%/96.6%/98.6%. […] Meanwhile, the morphology changes of HeLa-DsRed cell treated with different nanoparticle formulations were studied and the results are shown in FIG. 15E. […]

[4] = TEM size of lipidoid nanoparticles; format: physicochemical; settings: TEM images of LNPs
Procedure: All chemicals used for lipidoids synthesis were purchased from Sigma-Aldrich without further purification unless otherwise noted. (−30)GFP-Cre recombinase, S. pyogenes Cas9 (spCas9) and sgRNA were generated following the protocols reported in Wang at al., Proc. Natl. Acad. Sci. USA, 2016, 113, 2868-2873 (“Wang”). HeLa-DsRed and GFP-HEK cells were cultured in Dulbecco's modified eagle's medium (DMEM, Sigma-Aldrich) with 10% fetal bovine serum (FBS, Sigma-Aldrich) and 1% penicillin-streptomycin (Gibco). All ^1H NMR spectra were recorded on a Bruker AVIII 500 MHz NMR spectrometer operated in the Fourier transform mode. Hydrodynamic size and polydispersity index of nanoparticles were measured by Zeta-PALS particle size analyzer (Brookhaven Instruments). The apparent pKa values of lipidoids were determined using 2-(p-toluidinynaphthalene-6-sulphonic acid) (TNS, Sigma-Aldrich) as fluorescent probe following the protocols reported in Heyes et al., J. Controlled Release, 2005, 107, 276-287. TEM measurements were performed on a FEI Technai Transmission Electron Microscope. Fluorescence images of tissue slices were obtained using BZ-X Analyzer fluorescence microscope.
The morphologies of LNPs were further studied by the transmission electron microscopy (TEM). […] Subsequently, the stability of LNPs thus prepared was examined by DLS and fluorescence measurements.
The morphologies of OCholB fully substituted LNPs were then examined by transmission electron microscopy (TEM). […] In contrast, the vesicular structures were not well-formed for 87-OCholB and 90-OCholB compared to their counterparts, and amorphous aggregates were observed instead.

Row | Structure (SMILES) | GFP^+ cells [1] [%] | GFP^+ cells [2] [%] | GFP^+ cells [3] [%] | internalization efficiency with endocytosis inhibitors (HeLa-DsRed cells) | size measured by TEM [4] [nm]
1 | CCN(CC)CCN(CCC(=O)OCCSSCCNC(=O)OC1CCC2(C)C(=CCC3C2CCC2(C)C(C(C)CCCC(C)C)CCC32)C1)CCC(=O)OCCSSCCNC(=O)OC1CCC2(C)C(=CCC3C2CCC2(C)C(C(C)CCCC(C)C)CCC32)C1 (centres unmarked) [Lipidoid 75-OCholB] | 63.0 | 54.1 | 60.9 | significantly suppressed by sucrose and dynasore | –
2 | CC(C)CCCC(C)C1CCC2C3CC=C4CC(OC(=O)NCCSSCCOC(=O)CCN(CCC(=O)OCCSSCCNC(=O)OC5CCC6(C)C(=CCC7C6CCC6(C)C(C(C)CCCC(C)C)CCC76)C5)CCN5CCCC5)CCC4(C)C3CCC12C (centres unmarked) [Lipidoid 76-OCholB] | 70.7 | 24.1 | 75.8 | significantly suppressed by sucrose and dynasore | –
3 | CC(C)CCCC(C)C1CCC2C3CC=C4CC(OC(=O)NCCSSCCOC(=O)CCN(CCC(=O)OCCSSCCNC(=O)OC5CCC6(C)C(=CCC7C6CCC6(C)C(C(C)CCCC(C)C)CCC76)C5)CCC5CCCN5C)CCC4(C)C3CCC12C (centres unmarked) [Lipidoid 77-OCholB] | – | – | – | significantly suppressed by sucrose and dynasore | –
4 | CCN(CC)CCCN(CCC(=O)OCCSSCCNC(=O)OC1CCC2(C)C(=CCC3C2CCC2(C)C(C(C)CCCC(C)C)CCC32)C1)CCC(=O)OCCSSCCNC(=O)OC1CCC2(C)C(=CCC3C2CCC2(C)C(C(C)CCCC(C)C)CCC32)C1 (centres unmarked) [Lipidoid 81-OCholB] | – | – | – | – | 216.9
5 | CC(C)CCCC(C)C1CCC2C3CC=C4CC(OC(=O)NCCSSCCOC(=O)CCN(C)CCN(CCN(C)CCC(=O)OCCSSCCNC(=O)OC5CCC6(C)C(=CCC7C6CCC6(C)C(C(C)CCCC(C)C)CCC76)C5)CCN(C)CCC(=O)OCCSSCCNC(=O)OC5CCC6(C)C(=CCC7C6CCC6(C)C(C(C)CCCC(C)C)CCC76)C5)CCC4(C)C3CCC12C (centres unmarked) [Lipidoid 304-OCholB] | – | – | – | – | 394.0
